Laboratory results published in patent US20220396577A1, “NOVEL SUBSTITUTED 1,3-8-TRIAZASPIRO[4,5] DECANE-2,4-DIONE COMPOUNDS AS INDOLEAMINE 2,3-DIOXYGENASE (IDO) AND/OR TRYPTOPHAN 2,3-DIOXYGENASE (TDO) INHIBITORS” (Merck Sharp & Dohme LLC, priority 2019, published 2022).

Target: T1, FLT3(D835Y) (Homo sapiens, UniProt P36888, D835Y)
T1 sequence (P36888 27-993 D835Y): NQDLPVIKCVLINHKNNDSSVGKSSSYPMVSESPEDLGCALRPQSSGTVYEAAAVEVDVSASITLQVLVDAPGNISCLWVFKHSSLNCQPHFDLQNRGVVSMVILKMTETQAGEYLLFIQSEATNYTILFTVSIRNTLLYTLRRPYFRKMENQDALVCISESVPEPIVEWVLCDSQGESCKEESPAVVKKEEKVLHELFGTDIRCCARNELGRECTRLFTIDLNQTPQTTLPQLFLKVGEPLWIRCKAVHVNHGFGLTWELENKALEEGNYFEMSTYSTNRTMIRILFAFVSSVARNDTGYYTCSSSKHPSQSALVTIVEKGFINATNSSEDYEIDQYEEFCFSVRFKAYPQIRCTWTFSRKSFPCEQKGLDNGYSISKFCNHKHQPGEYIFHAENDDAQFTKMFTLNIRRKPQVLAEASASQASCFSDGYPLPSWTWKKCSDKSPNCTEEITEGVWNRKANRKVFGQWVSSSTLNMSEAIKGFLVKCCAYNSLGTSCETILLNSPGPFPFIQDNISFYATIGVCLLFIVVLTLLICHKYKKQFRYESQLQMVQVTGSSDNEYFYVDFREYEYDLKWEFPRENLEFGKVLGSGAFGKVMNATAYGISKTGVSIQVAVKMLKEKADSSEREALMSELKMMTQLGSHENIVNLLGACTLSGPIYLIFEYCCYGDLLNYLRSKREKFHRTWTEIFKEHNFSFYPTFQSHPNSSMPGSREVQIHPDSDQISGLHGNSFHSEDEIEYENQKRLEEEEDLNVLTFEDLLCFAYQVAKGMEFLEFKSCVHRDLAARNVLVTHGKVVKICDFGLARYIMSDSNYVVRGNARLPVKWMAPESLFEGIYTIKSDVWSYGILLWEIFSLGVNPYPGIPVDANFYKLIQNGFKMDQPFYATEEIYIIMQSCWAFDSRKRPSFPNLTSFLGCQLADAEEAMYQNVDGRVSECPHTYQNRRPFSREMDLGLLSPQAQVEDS
Experiment: Off-target kinase panel, ZLYTE: FLT3(D835Y)
Format: biochemical
Details: read-out: Estimated IC50 (uM) FLT3(D835Y)
Source text: The activity data was obtained in a panel of 265 and 264 for compounds 1-1 and CC-1, respectively, using the ZLYTE and ADAPTA assay methods indicated in the table below.
The ZLYTE biochemical assay employs a fluorescence-based, coupled-enzyme format and is based on the differential sensitivity of phosphorylated and non-phosphorylated peptides to proteolytic cleavage. The peptide substrate is labeled with two fluorophores—one at each end—that make up a Fluorescence Resonance Energy Transfer (FRET) pair.
In the primary reaction, the kinase transfers the gamma-phosphate of ATP to a single tyrosine, serine or threonine residue in a synthetic FRET-peptide. In the secondary reaction, a site-specific protease recognizes and cleaves non-phosphorylated FRET-peptides. Phosphorylation of FRET-peptides suppresses cleavage by the Development Reagent. […] A ratiometric method, which calculates the ratio (the Emission Ratio) of donor emission to acceptor emission after excitation of the donor fluorophore at 400 nm, is used to quantitate reaction progress, as shown in the equation below. […]
Both cleaved and uncleaved FRET-peptides contribute to the fluorescence signals and therefore to the Emission Ratio. The extent of phosphorylation of the FRET-peptide can be calculated from the Emission Ratio. […]
10. Read on fluorescence plate reader and analyze the data.

IC50: 1.5 µM
Compound: O=C1NC(=O)C2(CCN(c3cc(Cl)cc4[nH]ncc34)CC2)N1 [CC-1]
